In ChEMBL document CHEMBL2331422, “Tetracyclic diterpenoids with isomerized isospongian skeleton and labdane diterpenoids from the fruits of Amomum kravanh” (J Nat Prod, 2013) one finds inhibition, IC50 and viability data, which are given here for nine compounds.

For series [1], the system named is RAW264.7. The series can be described thus: Inhibition of nitric oxide production in LPS-stimulated mouse RAW264.7 cells at 100 uM by Griess reagent assay. The series is classed as functional. (Griess reagent forms a coloured azo dye with nitrite.)
Series [2] in a line: Antiplatelet aggregation activity in New Zealand white rabbit platelet rich plasma assessed as inhibition of ADP-induced aggregation treated for 3 mins before ADP challenge by turbidimetric method. The series is classed as functional. The following applies: Oryctolagus cuniculus, Newzealand white.
Series [3] can be described thus: Cytotoxicity against mouse RAW264.7 cells assessed as cell survival up to 100 uM by MTT assay. Conditions: read-out: Activity. The series is classed as cell-based. A general note: Tetrazolium dyes change colour on reduction, which living cells bring about.
The subject of series [4] is RAW264.7. Description: Inhibition of nitric oxide production in LPS-stimulated mouse RAW264.7 cells by Griess reagent assay. It counts as functional, cell-based.

With `C=C1CC[C@H]2C(C)(C)CCC[C@]2(C)[C@H]1C/C=C(/CO)[C@@H](O)CO`, the inhibition at 100 µM in the series with RAW264.7 [1] is under 10%. In addition, in series [2], the IC50 is over 200 µM. Further, in series [3], the viability worked out at 90%.
`C=C1CC[C@H]2[C@](C)(CO)[C@@H](O)CC[C@]2(C)[C@H]1CCC1=CC(=O)OC1` had an inhibition at 100 µM with RAW264.7 [1] of under 10%. Also, in series [2], the IC50 worked out at 58.9 µM. For the same compound, the viability in series [3] was 90%.
Compound `C=C1CC[C@H]2[C@](C)(CO)[C@@H](O)CC[C@]2(C)[C@H]1C/C=C1\CCOC1=O` registered an inhibition at 100 µM with RAW264.7 [1] of under 10%. Further, in series [2], the IC50 was over 200 µM. Moreover, the viability in series [3] is 90%.
Turning to `CC(=O)Oc1ccccc1C(=O)O` [ASPIRIN], the IC50 in series [2] turned out to be 58.9 µM.
Turning to `CC1(C)[C@@H](O)CC[C@]2(C)[C@H]3CCC4=CC(=O)O[C@@H]4[C@@]3(C)C(=O)C[C@@H]12` [KRAVANHIN A], in the series with RAW264.7 [1], the inhibition at 100 µM is under 10%. In series [2], the IC50 was over 200 µM. In series [3], the viability amounted to 90%.
`CC1(C)CCC[C@]2(C)[C@H]3CCC4=CC(=O)O[C@@H]4[C@@]3(C)C(=O)C[C@@H]12` [KRAVANHIN B]: the inhibition at 100 µM in the series on RAW264.7 [1] is under 10%. The IC50 was 36.2 µM with RAW264.7 [4] and over 200 µM in series [2]. Besides, the viability in series [3] came to 90%.
The compound `CC1(C)C(=O)CC[C@]2(C)[C@H]3CCC4=CC(=O)O[C@@H]4[C@@]3(C)C(=O)C[C@@H]12` [KRAVANHIN C] came in with an inhibition at 100 µM with RAW264.7 [1] of under 10%. In addition, the IC50 in series [2] is over 200 µM. For the same compound, the viability in series [3] turned out to be 90%.
In the case of `CC1(C)CCC[C@]2(C)[C@H]3CC=C(CCO)C(O)[C@@]3(C)C(=O)C[C@@H]12` (some centres undefined) [KRAVANHIN D], the inhibition at 100 µM in the series with RAW264.7 [1] is under 10%. Further, in series [2], the IC50 is over 200 µM. Besides, in series [3], the viability was determined as 90%.
For the compound `CNC(=N)NCCC[C@H](N)C(=O)O` [TILARGININE], the half-inhibitory concentration (IC50) in the series on RAW264.7 [4] was 40.4 µM.

A word on the inhibition: it is the change of the read-out against control, counted positive when it falls. A low value points to a weak effect. For orientation: IC50 means the point on the concentration scale where inhibition reaches its midpoint.
